The values below come from PMC5809559, “DYRK1A inhibition and cognitive rescue in a Down syndrome mouse model are induced by new fluoro-DANDY derivatives” (Scientific Reports, 2018).

Where “and” joins values, the source holds several entries; their conditions need not be identical. Identical values can stand only once. Like-named read-outs stand apart in the source and are kept apart here.

Data set [1] deals with T1, DYRK1A catalytic domain (DYRK1A-ΔC) (Rattus norvegicus, UniProt Q63470).
T1 construct: The cDNA coding for the catalytic domain (residues 1-502) of rat DYRK1A; 6xHis; made in house; host or cells: E. coli BL21(DE3), pET28
Briefly: In vitro DYRK1A kinase inhibition, UFLC assay with fluorescent peptide substrate. The settings on record: read-out: IC50, in vitro inhibition of DYRK1A. It is filed as biochemical.

Details of data set [2]: method as in PMID 27194478. The settings on record: other drugs acting on the central nervous system; cited from earlier work.
The subject of the next data set is KB cells. Briefly: KB cell proliferation / cytotoxicity (CellTiter-Blue). The class given is cell-based. The settings on record: Homo sapiens; for inhibition at 10 µM / inhibition at 1 µM: 72 h; for inhibition at 10 µM: 10^−5 M, read-out: % Growth inhibition 10^−5 M; for inhibition at 1 µM: 10^−6 M, read-out: % Growth inhibition 10^−6 M. Here is the method:
Cancer cell lines were obtained from the American Type Culture Collection (Rockville, MD, USA) and were cultured according to the supplier’s instructions. Briefly, human KB epidermal carcinoma cells were grown in Dulbecco minimal essential medium (DMEM) containing 4.5 g/L glucose supplemented with 10% fetal calf serum (FCS) and 1% glutamine, 100 UI penicillin, 100 µg/mL streptomycin and 1.5 µg/mL fungizone and maintained at 37 °C in a humidified atmosphere containing 5% CO2. Cell viability was assessed using Promega CellTiter-Blue TM reagent according to the manufacturer’s instructions. Cells were seeded in 96-well plates (5 × 10^3 cells/well) containing […]. After 24 h of culture, the cells were supplemented with […] of the studied compound dissolved in DMSO (less than 0.1% in each preparation). After 72 h of incubation, […] of resazurin was added for 2 h before recording fluorescence (λex = 560 nm, λem = 590 nm) using a Victor microtiter plate fluorimeter (Perkin-Elmer, USA).
(Alamar Blue is a resazurin reagent that responds to reducing activity.)

In the next data set the target is T2, DYRK1A (Homo sapiens, UniProt Q13627).
T2 construct: vectors encoding full-length human DYRK1A and Tau; host or cells: HEK293
In words: Inhibition of tau phosphorylation by DYRK1A in cellulo (HEK293 co-transfected with DYRK1A and Tau, ClariCELL ELISA phospho-TauT212). It is filed as cell-based. A general note: In an ELISA, binding on a coated surface is turned into a signal by an enzyme label.

The mark [3] stands for this setting: 3,5-diaryl-7-azaindoles 5a-5g, Fig. 5.
Where [4] appears, read: 3,5-diaryl-7-azaindoles 4a-4f, Fig. 4.

Usually IC50 stands for the concentration needed to halve the response being measured. On to `Oc1ccc(-c2cnc3[nH]cc(-c4ccc(F)c(F)c4)c3c2)c(O)c1` [Compound 5d], for which the IC50 in data set [1] (setting [3]) turned out to be 232 nM. Same read-out and setting: next, `COc1ccc(-c2c[nH]c3ncc(-c4ccc(O)c(O)c4)cc23)cc1OC` [Compound 5f]: 476 nM.

Regarding `CC(NC(C)(C)C)C(=O)c1cccc(Cl)c1` (centres unmarked) [buproprion], the “Kp (brain concentration/plasma concentration)” value in data set [2] was 4.97.

Broadly, the inhibition is the percentage by which the read-out fell short of the control. Consider `Oc1ccc(-c2cnc3[nH]cc(-c4ccc(O)c(F)c4)c3c2)cc1` [Compound 5g], for which the IC50 in data set [1] (setting [3]) was 9.34 nM and 9.3 nM; with KB cells (estimated, read-out: estimated IC50, KB cell growth inhibition), approximately 1000 nM; at DYRK1A (HEK293 transfected with DYRK1A and tau, 2 h incubation) it was 380 nM. The inhibition at 10 µM in the data set with KB cells (KB) came out at 95 ± 1%. For the same molecule, the inhibition at 1 µM in the data set on KB cells (KB) was determined as 46 ± 1%. Also, the “Ratio between in cellulo and in vitro inhibitory potencies” value at DYRK1A (tau phosphorylation IC50 / in vitro DYRK1A IC50) is 41.

On to `COc1ccc(-c2cnc3[nH]cc(-c4ccc(F)cc4)c3c2)c(OC)c1` [Compound 4b], for which the IC50 in data set [1] (setting [4]) was determined as 920 nM. On to `Oc1ccc(-c2cnc3[nH]cc(-c4ccc(F)c(F)c4)c3c2)cc1O` [Compound 5c], for which the IC50 in data set [1] (setting [3]) was found to be 56.6 nM. In addition, the inhibition at 1 µM with KB cells (KB) was 6 ± 2%. In the case of `COc1ccc(-c2cnc3[nH]cc(-c4ccc(F)c(F)c4)c3c2)cc1OC` [Compound 4c], the IC50 in data set [1] (setting [4]) was 5260 nM. For the molecule `COc1ccc(-c2c[nH]c3ncc(-c4ccc(O)cc4)cc23)cc1F` [Compound 5e], in data set [1] (setting [3]), the IC50 came to 41.5 nM. Besides, in the data set on KB cells, the inhibition at 10 µM came to 66 ± 3% and the inhibition at 1 µM turned out to be 30 ± 1%. Consider `COc1ccc(-c2cnc3[nH]cc(-c4ccc(F)cc4)c3c2)cc1OC` [Compound 4a], for which the IC50 in data set [1] (setting [4]) was 1430 nM. `COc1ccc(-c2c[nH]c3ncc(-c4ccc(OCc5ccccc5)c(OCc5ccccc5)c4)cc23)cc1OC` [Compound 4f]: the IC50 in data set [1] (setting [4]) came to 18500 nM. In the case of `CNCCC(Oc1ccc(C(F)(F)F)cc1)c1ccccc1` (centres unmarked) [fluoxetine], the “Kp (brain concentration/plasma concentration)” value in data set [2] was 5.23. Turning to `COc1ccc(-c2c[nH]c3ncc(-c4ccc(OCc5ccccc5)cc4)cc23)cc1F` [Compound 4e], in data set [1] (setting [4]), the IC50 worked out at 6090 nM. `COc1ccc(-c2cnc3[nH]cc(-c4ccc(F)c(F)c4)c3c2)c(OC)c1` [Compound 4d]: in data set [1] (setting [4]), the IC50 came to 37400 nM.

Turning to `Oc1ccc(-c2cnc3[nH]cc(-c4ccc(F)cc4)c3c2)c(O)c1` [Compound 5b], the IC50 in data set [1] (setting [3]) worked out at 191 nM.

On to `OCCN1CCN(CCCN2c3ccccc3Sc3ccc(Cl)cc32)CC1` [perphenazine], for which the “Kp (brain concentration/plasma concentration)” value in data set [2] is 7.12.
